Experimental data published in PubChem BioAssay AID248 (DTP/NCI, 2004).
“And” between values parts separate entries of the source, which are not always exact repeats. Identical values can stand only once. Inconclusive results and toxic doses are left out. Cut-off read from the data, not from the text of the source: active = T/C of 150% or more; inactive = T/C below 125%. Peptide text beside a SMILES is read from it. * marks the point of attachment. Tos = Cc1ccc(S(=O)(=O)*)cc1

System: L1210 leukemia ip in BDF1 mice, survival T/C
Assay: NCI In Vivo Anticancer Drug Screen. Data for tumor model L1210 Leukemia (intraperitoneal) in B6D2F1 (BDF1) mice
Conditions: endpoint: mean survival time, higher = longer survival
How it was run: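 Read-out is survival time, reported as the treated-group measurement over the vehicle-control measurement.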

[1] = dose: 200.0 mg/kg/injection, schedule: Q01DX009 (ip), vehicle: saline
[2] = dose: 400.0 mg/kg/injection, schedule: Q01DX009 (ip), vehicle: saline
[3] = dose: 100.0 mg/kg/injection, schedule: Q01DX001 (ip), vehicle: saline
[4] = dose: 200.0 mg/kg/injection, schedule: Q01DX001 (ip), vehicle: saline
[5] = dose: 400.0 mg/kg/injection, schedule: Q01DX001 (ip), vehicle: saline
[6] = dose: 50.0 mg/kg/injection, schedule: Q01DX009 (ip), vehicle: Klucel (hydroxypropylcellulose) (HPC)
[7] = dose: 100.0 mg/kg/injection, schedule: Q01DX009 (ip), vehicle: Klucel (hydroxypropylcellulose) (HPC)
[8] = dose: 200.0 mg/kg/injection, schedule: Q01DX009 (ip), vehicle: Klucel (hydroxypropylcellulose) (HPC)
[9] = dose: 50.0 mg/kg/injection, schedule: Q04DX002 (ip), vehicle: Klucel (hydroxypropylcellulose) (HPC)
[10] = dose: 100.0 mg/kg/injection, schedule: Q04DX002 (ip), vehicle: Klucel (hydroxypropylcellulose) (HPC)

Measured: T/C

N=C(N)COc1ccccc1
inactive: dose: 100.0 mg/kg/injection, schedule: Q01DX001 (ip), vehicle: saline sonified 101 % of control | dose: 200.0 mg/kg/injection, schedule: Q01DX001 (ip), vehicle: saline sonified 97 % of control | dose: 400.0 mg/kg/injection, schedule: Q01DX001 (ip), vehicle: saline sonified 95 % of control

CCCCSc1ncnc2nc[nH]c12
inactive: dose: 75.0 mg/kg/injection, schedule: Q01DX001 (ip), vehicle: other 103 % of control | dose: 150.0 mg/kg/injection, schedule: Q01DX001 (ip), vehicle: other 95 % of control | dose: 300.0 mg/kg/injection, schedule: Q01DX001 (ip), vehicle: other 106 % of control

Cc1cccc(C(=O)OCc2ccccc2CN2CCCCC2C)c1 (stereo not given)
inactive: dose: 100.0 mg/kg/injection, schedule: Q01DX001 (ip), vehicle: Klucel (hydroxypropylcellulose) (HPC) 93 % of control | dose: 200.0 mg/kg/injection, schedule: Q01DX001 (ip), vehicle: Klucel (hydroxypropylcellulose) (HPC) 93 % of control

CCOCC(C#N)C#N
inactive: dose: 6.25 mg/kg/injection, schedule: Q01DX009 (ip), vehicle: saline 94 % of control | dose: 6.25 mg/kg/injection, schedule: Q04DX003 (ip), vehicle: saline 96 % of control | dose: 12.5 mg/kg/injection, schedule: Q01DX009 (ip), vehicle: saline 92 % of control | dose: 12.5 mg/kg/injection, schedule: Q04DX003 (ip), vehicle: saline 106 % of control | dose: 25.0 mg/kg/injection, schedule: Q04DX003 (ip), vehicle: saline 99 % of control

CCCCCCOC(=O)C1OC1(C)c1ccccc1 (stereo not given)
inactive: dose: 100.0 mg/kg/injection, schedule: Q04DX002 (ip), vehicle: saline 108 % of control | dose: 200.0 mg/kg/injection, schedule: Q04DX002 (ip), vehicle: saline 112 % of control | dose: 400.0 mg/kg/injection, schedule: Q04DX002 (ip), vehicle: saline 93 % of control

Cc1ccc(S(=O)(=O)NCC(=O)NCC(=O)O)cc1 (Tos-Gly-Gly-OH)
inactive: dose: 100.0 mg/kg/injection, schedule: Q01DX009 (ip), vehicle: saline 105 % of control | [1] 94 % of control | [2] 96 % of control

O=C1CN(CO)C(=O)CN1CO
inactive: dose: 44.0 mg/kg/injection, schedule: Q01DX009 (ip), vehicle: saline 105 % of control | dose: 66.0 mg/kg/injection, schedule: Q01DX009 (ip), vehicle: saline 99 % of control | dose: 150.0 mg/kg/injection, schedule: Q01DX009 (ip), vehicle: saline 108 % of control | [1] 105 % of control | [2] 106 % of control

COc1ccc(C(=O)/C=C/c2ccccc2)c(O)c1
inactive: dose: 50.0 mg/kg/injection, schedule: Q01DX001 (ip), vehicle: saline 98 % of control | [3] 102 % of control | [4] 102 % of control | [5] 98 % of control

COc1ccc([N+](=O)[O-])cc1NC(=O)Oc1ccc(F)cc1Cl
inactive: [6] 108 % of control | [7] 111 % of control | [8] 90 % of control

O=C(NCCCCCCCCCCNC(=O)Nc1cccc(C2=NCCN2)c1)Nc1cccc(C2=NCCN2)c1
inactive: dose: 10.0 mg/kg/injection, schedule: Q01DX Z (ip), vehicle: water 106 % of control | dose: 20.0 mg/kg/injection, schedule: Q01DX Z (ip), vehicle: water 90 % of control

CCS(=O)c1ncc2cnccn12 (stereo not given)
inactive: dose: 50.0 mg/kg/injection, schedule: Q01DX009 (ip), vehicle: water 105 % of control | dose: 100.0 mg/kg/injection, schedule: Q01DX009 (ip), vehicle: water 107 % of control | dose: 100.0 mg/kg/injection, schedule: Q04DX003 (ip), vehicle: water 102 % of control | dose: 200.0 mg/kg/injection, schedule: Q04DX003 (ip), vehicle: water 100 % of control

CCCN(CCC)CCC#N
inactive: dose: 59.0 mg/kg/injection, schedule: Q01DX009 (ip), vehicle: saline with Tween-80 100 % of control | dose: 100.0 mg/kg/injection, schedule: Q04DX003 (ip), vehicle: saline with Tween-80 93 % of control | dose: 118.0 mg/kg/injection, schedule: Q01DX009 (ip), vehicle: saline with Tween-80 105 % of control | dose: 200.0 mg/kg/injection, schedule: Q04DX003 (ip), vehicle: saline with Tween-80 93 % of control

CC(=O)OCC1OC(N2C(=O)/C(=C(/C)c3ccccn3)SC2=S)C(OC(C)=O)C(OC(C)=O)C1OC(C)=O (stereo not given)
inactive: dose: 25.0 mg/kg/injection, schedule: Q01DX005 (ip), vehicle: other 92 % of control | dose: 50.0 mg/kg/injection, schedule: Q01DX005 (ip), vehicle: other 97 % of control | dose: 100.0 mg/kg/injection, schedule: Q01DX005 (ip), vehicle: other 94 % of control | dose: 200.0 mg/kg/injection, schedule: Q01DX005 (ip), vehicle: other 96 % of control | dose: 400.0 mg/kg/injection, schedule: Q01DX005 (ip), vehicle: other 96 % of control

COc1ccc(C(=O)OCCN(CCN(CCOC(=O)c2ccc(OC)cc2)C(=O)c2ccc(OC)cc2)C(=O)c2ccc(OC)cc2)cc1
inactive: dose: 25.0 mg/kg/injection, schedule: Q01DX009 (ip), vehicle: Klucel (hydroxypropylcellulose) (HPC) 88 % of control | [6] 96 % of control | [7] 89 % of control | [8] 94 % of control | dose: 400.0 mg/kg/injection, schedule: Q01DX009 (ip), vehicle: Klucel (hydroxypropylcellulose) (HPC) 105 % of control

NNC(=O)CNc1ccccc1Br
inactive: [9] 106 % of control | [10] 105 % of control and 110 % of control

COP1(=O)OCC(C)O1 (stereo not given)
inactive: [3] 113 % of control | [4] 102 % of control | [5] 94 % of control

COc1cc(Cl)ccc1NC(=O)Oc1ccc(C=O)cc1OC
inactive: [10] 101 % of control | dose: 200.0 mg/kg/injection, schedule: Q04DX002 (ip), vehicle: Klucel (hydroxypropylcellulose) (HPC) 90 % of control | dose: 400.0 mg/kg/injection, schedule: Q04DX002 (ip), vehicle: Klucel (hydroxypropylcellulose) (HPC) 93 % of control

CC(C)N1CCc2cc3c(cc2C1)OCO3
inactive: dose: 5.0 mg/kg/injection, schedule: Q01DX001 (ip), vehicle: saline 101 % of control | dose: 10.0 mg/kg/injection, schedule: Q01DX001 (ip), vehicle: saline 101 % of control | dose: 20.0 mg/kg/injection, schedule: Q01DX001 (ip), vehicle: saline 110 % of control | dose: 40.0 mg/kg/injection, schedule: Q01DX001 (ip), vehicle: saline 104 % of control | dose: 80.0 mg/kg/injection, schedule: Q01DX001 (ip), vehicle: saline 101 % of control

N#CC(Nc1c(N)nc(-c2ccccc2)nc1N)c1ccc(N(CCCl)CCCl)cc1 (stereo not given)
inactive: dose: 50.0 mg/kg/injection, schedule: Q01DX001 (ip), vehicle: carboxymethylcellulose (CMC) 100 % of control | dose: 100.0 mg/kg/injection, schedule: Q01DX001 (ip), vehicle: carboxymethylcellulose (CMC) 115 % of control | dose: 200.0 mg/kg/injection, schedule: Q01DX001 (ip), vehicle: carboxymethylcellulose (CMC) 100 % of control | dose: 400.0 mg/kg/injection, schedule: Q01DX001 (ip), vehicle: carboxymethylcellulose (CMC) 105 % of control

CCOC(=O)C1CC2CCC1CC2 (stereo not given)
inactive: dose: 25.0 mg/kg/injection, schedule: Q01DX005 (ip), vehicle: saline with Tween-80 92 % of control | dose: 25.0 mg/kg/injection, schedule: Q01DX009 (ip), vehicle: saline with Tween-80 102 % of control | dose: 25.0 mg/kg/injection, schedule: Q04DX002 (ip), vehicle: saline with Tween-80 106 % of control | dose: 50.0 mg/kg/injection, schedule: Q01DX005 (ip), vehicle: saline with Tween-80 92 % of control | dose: 50.0 mg/kg/injection, schedule: Q01DX009 (ip), vehicle: saline with Tween-80 94 % of control | dose: 50.0 mg/kg/injection, schedule: Q04DX002 (ip), vehicle: saline with Tween-80 94 % of control | dose: 100.0 mg/kg/injection, schedule: Q01DX005 (ip), vehicle: saline with Tween-80 89 % of control | dose: 100.0 mg/kg/injection, schedule: Q01DX009 (ip), vehicle: saline with Tween-80 109 % of control | dose: 100.0 mg/kg/injection, schedule: Q04DX002 (ip), vehicle: saline with Tween-80 97 % of control and 103 % of control

C[N+](C)(C)CC(O)COc1ccc(Cl)cc1Cl (stereo not given)
inactive: dose: 25.0 mg/kg/injection, schedule: Q04DX002 (ip), vehicle: Klucel (hydroxypropylcellulose) (HPC) 97 % of control | [9] 101 % of control | [10] 94 % of control and 89 % of control
